Test [1] in a line: DRUGMATRIX: Glutamate, NMDA, Agonism radioligand binding (ligand: [3H] CGP-39653). The format is cell membranes, Rattus norvegicus, Wistar, Cerebral cortex, Membrane. The settings on record: Not Active = under 50% inhibition at 10 µM.
Test [2] deals with Beta-3 adrenergic receptor (Homo sapiens, UniProt P13945). Briefly: DRUGMATRIX: Adrenergic beta3 radioligand binding (ligand: [125I] Cyanopindolol). The format is cell membranes, HEK293, Membrane. The settings on record: hek293; Not Active = under 50% inhibition at 10 µM.
Chain of Beta-3 adrenergic receptor (P13945 whole entry): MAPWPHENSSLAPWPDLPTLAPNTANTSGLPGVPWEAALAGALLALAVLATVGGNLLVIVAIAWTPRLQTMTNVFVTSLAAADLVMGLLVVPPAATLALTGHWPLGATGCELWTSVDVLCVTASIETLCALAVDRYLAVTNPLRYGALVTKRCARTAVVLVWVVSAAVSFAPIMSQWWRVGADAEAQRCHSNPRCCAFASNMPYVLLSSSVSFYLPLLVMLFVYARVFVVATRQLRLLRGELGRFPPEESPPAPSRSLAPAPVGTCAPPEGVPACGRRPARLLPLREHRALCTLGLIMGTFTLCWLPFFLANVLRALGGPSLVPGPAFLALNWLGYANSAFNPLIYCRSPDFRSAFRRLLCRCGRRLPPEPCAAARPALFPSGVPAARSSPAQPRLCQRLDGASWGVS
A short description of test [3]: DRUGMATRIX: Sigma2 radioligand binding (ligand: [3H] Ifenprodil). The format is cell membranes, Rattus norvegicus, Wistar, Brain, Membrane. To be noted: Not Active = under 50% inhibition at 10 µM.
The target of test [4] is Vasopressin V1a receptor (Homo sapiens, UniProt P37288). The format is cell membranes, Membrane. The settings on record: hek293. Further: in other assays of this panel Not Active means under 50% inhibition at 10 µM.
Chain of Vasopressin V1a receptor (P37288 whole entry): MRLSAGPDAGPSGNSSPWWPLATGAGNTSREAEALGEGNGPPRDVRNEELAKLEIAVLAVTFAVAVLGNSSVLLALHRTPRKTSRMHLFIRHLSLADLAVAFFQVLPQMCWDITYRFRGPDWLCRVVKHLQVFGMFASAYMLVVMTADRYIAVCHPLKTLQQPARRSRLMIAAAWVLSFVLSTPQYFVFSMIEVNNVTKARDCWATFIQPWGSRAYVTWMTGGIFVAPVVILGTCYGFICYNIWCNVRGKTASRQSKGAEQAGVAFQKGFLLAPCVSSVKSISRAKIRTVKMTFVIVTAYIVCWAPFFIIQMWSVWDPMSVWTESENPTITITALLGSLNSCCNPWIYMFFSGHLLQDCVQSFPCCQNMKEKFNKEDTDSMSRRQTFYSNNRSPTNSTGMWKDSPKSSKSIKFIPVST
Test [5] has as its target Acetylcholinesterase (Homo sapiens, UniProt P22303). Briefly: DRUGMATRIX: Acetylcholinesterase enzyme inhibition (substrate: acetylthiocholine). To be noted: hek293; Not Active = under 50% inhibition at 10 µM. The format is cell-based, HEK293.
For test [6], the target named is T1, Alpha-2A adrenergic receptor (Homo sapiens, UniProt P08913). Further: in other assays of this panel Not Active means under 50% inhibition at 10 µM.
T1 sequence (P08913 whole entry): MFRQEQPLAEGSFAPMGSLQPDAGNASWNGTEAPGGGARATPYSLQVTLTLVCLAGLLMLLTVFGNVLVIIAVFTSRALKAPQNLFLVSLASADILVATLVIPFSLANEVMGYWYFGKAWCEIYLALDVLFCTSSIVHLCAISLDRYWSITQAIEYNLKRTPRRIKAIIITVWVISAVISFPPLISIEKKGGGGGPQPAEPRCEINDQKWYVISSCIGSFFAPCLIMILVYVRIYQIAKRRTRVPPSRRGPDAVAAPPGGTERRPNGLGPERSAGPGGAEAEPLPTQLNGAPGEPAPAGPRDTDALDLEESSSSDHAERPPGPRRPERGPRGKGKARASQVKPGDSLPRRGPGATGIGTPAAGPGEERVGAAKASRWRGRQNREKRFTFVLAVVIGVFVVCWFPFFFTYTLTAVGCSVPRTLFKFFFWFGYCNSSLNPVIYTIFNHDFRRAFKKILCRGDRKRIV
The format is cell membranes, Sf9, Membrane.

Chain of Acetylcholinesterase (P22303 whole entry): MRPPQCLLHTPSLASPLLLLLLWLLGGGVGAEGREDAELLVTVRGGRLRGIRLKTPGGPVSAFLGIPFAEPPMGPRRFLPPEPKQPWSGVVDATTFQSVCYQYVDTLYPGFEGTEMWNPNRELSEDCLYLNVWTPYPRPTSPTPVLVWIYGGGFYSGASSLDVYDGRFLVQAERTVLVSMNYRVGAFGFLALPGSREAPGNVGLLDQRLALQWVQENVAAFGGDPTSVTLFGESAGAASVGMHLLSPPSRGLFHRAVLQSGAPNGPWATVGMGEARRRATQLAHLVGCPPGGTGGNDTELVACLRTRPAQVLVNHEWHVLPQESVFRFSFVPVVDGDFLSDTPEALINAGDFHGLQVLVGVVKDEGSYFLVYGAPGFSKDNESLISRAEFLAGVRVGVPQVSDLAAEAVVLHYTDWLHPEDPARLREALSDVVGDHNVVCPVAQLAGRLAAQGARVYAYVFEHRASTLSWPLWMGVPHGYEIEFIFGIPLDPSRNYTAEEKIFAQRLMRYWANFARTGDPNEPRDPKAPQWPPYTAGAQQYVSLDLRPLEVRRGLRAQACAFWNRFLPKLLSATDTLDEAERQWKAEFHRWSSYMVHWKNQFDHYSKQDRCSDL

The IC50 is the concentration at which inhibition is half-maximal. As a reminder, the Ki is a dissociation constant, usually derived from enzyme kinetics or from competition with a known ligand. `O=C(Nc1ccc(Br)cc1)c1cc(Br)cc(Br)c1O` [TRIBROMSALAN]: the IC50 result in test [1], in test [2], in test [3], in test [4], in test [5] and in test [6] (sf9) was “Not Active” in each case. For the same molecule, the Ki entry in test [1] and in test [3] was “Not Active” in each case.
As to `O=C1Nc2ccc(Cl)cc2C(c2ccccc2Cl)=NC1O` (stereo not drawn) [LORAZEPAM], the IC50 result in test [1], in test [2], in test [3], in test [4], in test [5] and in test [6] (sf9) was “Not Active” in each case. In addition, the inhibition constant Ki result in test [1] and in test [3] was “Not Active” each time.
As for `CC(C)Oc1ccc2c(=O)c(-c3ccccc3)coc2c1` [IPRIFLAVONE], the IC50 result in test [1], in test [2], in test [3], in test [4], in test [5] and in test [6] (sf9) was “Not Active” each time. Besides, the Ki result in test [1] and in test [3] was “Not Active” throughout.
In the case of `CNC1(c2ccccc2Cl)CCCCC1=O` (stereo not drawn) [KETAMINE], the IC50 result in test [1], in test [2], in test [3], in test [4], in test [5] and in test [6] (sf9) was “Not Active” each time. Moreover, the Ki entry in test [1] and in test [3] was “Not Active” each time.
Turning to `O=C(O)c1cn(-c2ccc(F)cc2)c2cc(N3CCNCC3)c(F)cc2c1=O` [SARAFLOXACIN], the IC50 entry in test [1], in test [2], in test [3], in test [4], in test [5] and in test [6] (sf9) was “Not Active” throughout. The Ki result in test [1] and in test [3] was “Not Active” each time.
In the case of SODIUM ORTHOVANAD, the IC50 entry in test [1], in test [2], in test [3], in test [4], in test [5] and in test [6] (sf9) was “Not Active” in each case. The Ki entry in test [1], in test [2], in test [3], in test [4], in test [5] and in test [6] (sf9) was “Not Active” each time.
For `Cn1c(=O)c2nc[nH]c2n(C)c1=O.O` [THEOPHYLLINE], the IC50 entry in test [1], in test [2], in test [3], in test [4], in test [5] and in test [6] (sf9) was “Not Active” throughout. The Ki entry in test [1] and in test [3] was “Not Active” in each case.
`CO[C@@H]1[C@@H](OC)[C@H](C)[C@@](O)(CC(=O)O)O[C@H]1[C@H](C)[C@H]1O[C@@]2(CC[C@@](C)([C@H]3CC[C@@](C)([C@@H]4O[C@@H]([C@H]5O[C@](C)(O)[C@H](C)C[C@@H]5C)C[C@@H]4O[C@@H]4C[C@H](OC)[C@@H](OC)[C@H](C)O4)O3)O2)C[C@H](O)[C@H]1C` [MADURAMICIN ACID]: the IC50 result in test [1] was “Not Active”; in test [2] it was “Not Active”; in test [3], “Not Active”; in test [4] it was “Not Active”; in test [5] it was “Not Active”; in test [6] (read-out: IC50), 180 nM. The inhibition constant (Ki) entry in test [1] was “Not Active”; in test [3], “Not Active”; in test [6] (read-out: Ki), 67 nM.
Turning to `CCN(CC)CC(=O)Nc1c(C)cccc1C` [LIDOCAINE], the IC50 result in test [1], in test [2], in test [3], in test [4], in test [5] and in test [6] (sf9) was “Not Active” each time. Moreover, the Ki entry in test [1] and in test [3] was “Not Active” each time.
For the molecule `CN(C/C=C/C#CC(C)(C)C)Cc1cccc2ccccc12` [TERBINAFINE], the IC50 result was “Not Active” in test [1]; “Not Active” in test [2]; 35.4 nM in test [3] (read-out: IC50); “Not Active” in test [4]; “Not Active” in test [5]; 5700 nM in test [6] (read-out: IC50). For the same molecule, the Ki result in test [1] was “Not Active”; in test [3] (read-out: Ki) it was 21.8 nM; in test [6] (read-out: Ki), 2140 nM.
In the case of `CCCCNc1ccc(C(=O)OCCN(C)C)cc1` [TETRACAINE], the IC50 entry in test [1], in test [2], in test [3], in test [4], in test [5] and in test [6] (sf9) was “Not Active” throughout. The Ki entry in test [1] and in test [3] was “Not Active” throughout.
Consider `CC[C@@H](C(=O)[C@@H](C)[C@@H](O)[C@H](C)[C@@H]1O[C@@H]([C@@H](CC)C(=O)O)CC[C@@H]1C)[C@H]1O[C@]2(C=C[C@@H](O)[C@]3(CC[C@@](C)([C@H]4CC[C@](O)(CC)[C@H](C)O4)O3)O2)[C@H](C)C[C@@H]1C` [SALINOMYCIN], for which the IC50 entry in test [1], in test [2], in test [3], in test [4], in test [5] and in test [6] (sf9) was “Not Active” each time. Also, the Ki result in test [1] and in test [3] was “Not Active” in each case.
In the case of `Cc1c(C)c2c(c(C)c1O)CCC(C)(CN1CCN(c3cc(N4CCCC4)nc(N4CCCC4)n3)CC1)O2` (stereo not drawn), the IC50 result in test [1], in test [2], in test [3], in test [4], in test [5] and in test [6] (sf9) was “Not Active” each time. Also, the Ki result in test [1] and in test [3] was “Not Active” each time.
As to `CS(=O)(=O)c1ccc([C@@H](O)[C@@H](CO)NC(=O)C(Cl)Cl)cc1` [THIAMPHENICOL], the IC50 entry in test [1], in test [2], in test [3], in test [4], in test [5] and in test [6] (sf9) was “Not Active” throughout. The inhibitory constant (Ki) result in test [1] and in test [3] was “Not Active” throughout.
For `O=C(Oc1ccccc1C(=O)O)c1ccccc1O` [SALSALATE], the half-inhibitory concentration (IC50) entry in test [1], in test [2], in test [3], in test [4], in test [5] and in test [6] (sf9) was “Not Active” each time. Moreover, the Ki result in test [1] and in test [3] was “Not Active” each time.
Take `CC(C)NCC(O)c1ccc(NS(C)(=O)=O)cc1` (stereo not drawn) [SOTALOL]: the IC50 entry in test [1], in test [2], in test [3], in test [4], in test [5] and in test [6] (sf9) was “Not Active” in each case. The Ki entry in test [1] and in test [3] was “Not Active” each time.
In the case of MANGANESE CHLORIDE ANHYDROUS, the IC50 entry in test [1], in test [2], in test [3], in test [4], in test [5] and in test [6] (sf9) was “Not Active” each time. Moreover, the Ki entry in test [1], in test [2], in test [3], in test [4], in test [5] and in test [6] (sf9) was “Not Active” each time.
`O.O.O.O.O.O.[Cl-].[Cl-].[Sr+2]` [STRONTIUM CHLORIDE HEXAHYDRATE]: the IC50 result in test [1], in test [2], in test [3], in test [4], in test [5] and in test [6] (sf9) was “Not Active” throughout. The Ki result in test [1] and in test [3] was “Not Active” throughout.
With `Nc1cc(N2CCCCC2)nc(N)[n+]1[O-]` [MINOXIDIL], the IC50 entry in test [1], in test [2], in test [3], in test [4], in test [5] and in test [6] (sf9) was “Not Active” throughout. For the same molecule, the Ki entry in test [1] and in test [3] was “Not Active” each time.
Consider `CO[C@H]1/C=C/O[C@@]2(C)Oc3c(C)c(O)c4c(O)c(c(/C=N/N5CCN(C6CCCC6)CC5)c(O)c4c3C2=O)NC(=O)/C(C)=C\C=C\[C@H](C)[C@H](O)[C@@H](C)[C@@H](O)[C@@H](C)[C@H](OC(C)=O)[C@@H]1C` [RIFAPENTINE], for which the IC50 entry in test [1], in test [2], in test [3], in test [4], in test [5] and in test [6] (sf9) was “Not Active” throughout. For the same molecule, the Ki entry in test [1] and in test [3] was “Not Active” each time.
As to `Cc1cccc(C)c1OCC(C)N` (stereo not drawn) [MEXILETINE], the IC50 result in test [1], in test [2], in test [3], in test [4], in test [5] and in test [6] (sf9) was “Not Active” each time. The Ki result in test [1] and in test [3] was “Not Active” throughout.

Values taken from ChEMBL document CHEMBL1909046, “DrugMatrix in vitro pharmacology data”.
